Measured values taken from paper PMC6943558, “Covalent Inhibition of the Histamine H3 Receptor” (Molecules, 2019).
pEC50, pIC50: −log10 of the molar value. Read-outs that look alike come from different tables or passages of the source.

Legend:
[1] = target: T1, hH3R (human histamine H3 receptor) (Homo sapiens, UniProt Q9Y5N1); assay: [3H]NAMH displacement, cell homogenates; type: biochemical
T1 construct: gene HRH3; transiently transfected cDNA, HEK293T cell homogenates

[2] = target: T2, Nanoluc-H4R (histamine H4 receptor) (Homo sapiens, UniProt Q9H3N8); assay: NanoBRET displacement of clobenpropit-BODIPY; type: cell-based; settings: fluorescent tracer clobenpropit-BODIPY
T2 construct: gene HRH4; NanoLuc reporter fusion (Nluc-H4R); details not in the main text
T2 sequence (Q9H3N8 whole entry, the tested form may be a part): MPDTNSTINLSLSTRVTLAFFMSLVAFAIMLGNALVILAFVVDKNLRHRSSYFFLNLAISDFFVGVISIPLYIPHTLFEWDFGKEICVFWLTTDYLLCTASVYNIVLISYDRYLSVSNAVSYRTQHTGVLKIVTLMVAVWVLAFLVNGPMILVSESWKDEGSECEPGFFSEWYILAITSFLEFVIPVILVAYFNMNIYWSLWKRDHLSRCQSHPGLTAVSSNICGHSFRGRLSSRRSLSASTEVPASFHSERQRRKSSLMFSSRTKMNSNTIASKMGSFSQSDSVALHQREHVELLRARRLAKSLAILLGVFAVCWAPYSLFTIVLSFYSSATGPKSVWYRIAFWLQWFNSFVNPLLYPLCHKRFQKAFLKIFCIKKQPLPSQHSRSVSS

[3] = target: T1, hH3R (human histamine H3 receptor); assay: […]GTPγS binding, cell homogenates; type: biochemical
[4] = target: T1, hH3R (human histamine H3 receptor); assay: […]GTPγS binding, cell homogenates; type: biochemical; remark: listed apart in the source

T1 sequence (Q9Y5N1 whole entry): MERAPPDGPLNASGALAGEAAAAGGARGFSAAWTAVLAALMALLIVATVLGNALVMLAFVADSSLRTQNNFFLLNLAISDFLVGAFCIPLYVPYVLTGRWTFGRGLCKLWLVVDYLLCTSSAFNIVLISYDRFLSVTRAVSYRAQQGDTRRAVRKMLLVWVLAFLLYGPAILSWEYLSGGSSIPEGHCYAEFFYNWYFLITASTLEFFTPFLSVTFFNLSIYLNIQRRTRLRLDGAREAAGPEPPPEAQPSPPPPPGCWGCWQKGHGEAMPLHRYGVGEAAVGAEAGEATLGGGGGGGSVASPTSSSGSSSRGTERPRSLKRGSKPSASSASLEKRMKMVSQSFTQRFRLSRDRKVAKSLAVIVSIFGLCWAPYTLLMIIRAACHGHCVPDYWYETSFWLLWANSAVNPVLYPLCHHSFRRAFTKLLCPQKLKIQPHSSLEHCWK

C=Cc1nc(-c2ccccc2)cc(N2CCN(C)CC2)n1 [compound 1, VUF14480]
Ki ([1]; read-out: pKi (converted)): > 10 µM

Cc1nc(-c2ccccc2)cc(N2CCN(C)CC2)n1 [compound 2, 2]
Ki ([1]; read-out: pKi (converted)): 0.0794 µM

CC(C)c1cc(N2CC(N(C)C)C2)nc(N)n1 [compound 10, 10]
Ki ([1]; read-out: pKi (converted)): 0.0501 µM

CC(C)c1cc(N2CCN(C3CCC3)CC2)nc(N)n1 [compound 11, 11]
Ki ([1]; read-out: pKi (converted)): 0.2 µM

Cc1cc(N2CCN(C3CCC3)CC2)nc(N)n1 [compound 12, 12]
Ki ([1]; read-out: pKi (converted)): 0.316 µM

C#Cc1nc(C)cc(N2CCN(C3CCC3)CC2)n1 [compound 20, 20]
Ki ([1]; read-out: pKi (converted)): > 10 µM

C=Cc1nc(C(C)C)cc(N2CC(N(C)C)C2)n1 [compound 21, 21]
Ki ([1]; read-out: pKi (converted)): > 10 µM

C=Cc1nc(C(C)C)cc(N2CCN(C3CCC3)CC2)n1 [compound 22, 22]
Ki ([1]; read-out: pKi (converted)): 3.16 µM

C=Cc1nc(C)cc(N2CCN(C3CCC3)CC2)n1 [compound 23, 23]
Ki ([1]; read-out: pKi (converted)): 3.98 µM

Cc1nc(C(C)C)cc(N2CC(N(C)C)C2)n1 [compound 34, 34]
Ki ([1]; read-out: pKi (converted)): > 10 µM

CCc1nc(C(C)C)cc(N2CC(N(C)C)C2)n1 [compound 35, 35]
Ki ([1]; read-out: pKi (converted)): > 10 µM

Cc1nc(C(C)C)cc(N2CCN(C3CCC3)CC2)n1 [compound 36, 36]
Ki ([1]; read-out: pKi (converted)): 1.26 µM

CCc1nc(C(C)C)cc(N2CCN(C3CCC3)CC2)n1 [compound 37, 37]
Ki ([1]; read-out: pKi (converted)): 3.16 µM

Nc1cccc(N2CCN(C3CCC3)CC2)c1 [compound 42, 3-(4-Cyclobutylpiperazin-1-yl)aniline]
no tracer displacement up to 10 μM [2]: > 10 µM | Ki ([1]; read-out: pKi (converted)): 1.26 µM

O=C(CCl)Nc1cccc(N2CCN(C3CCC3)CC2)c1 [compound 43, 43]
Ki ([1]; read-out: pKi (converted)): 0.631 µM

S=C=Nc1cccc(N2CCN(C3CCC3)CC2)c1 [compound 44, 1-Cyclobutyl-4-(3-isothiocyanatophenyl)piperazine]
no tracer displacement up to 10 μM [2]: > 10 µM | Ki ([1]; read-out: pKi (converted)): 0.316 µM | pIC50 [3]: 6.10 | pEC50 [4]: 7.10

NCCc1c[nH]cn1 [histamine]
Ki ([1]; 50 mM Tris-HCl pH 7.4, 25 °C, vehicle-pretreated homogenates): Radioligand displacement curves of [^3H]NAMH with histamine on cell homogenates
